Patent US20240197709A1, “POTENTIATING THE TUMOR-SELECTIVE EFFECTS OF NQO1-BIOACTIVATABLE AGENT BY USE OF CMET INHIBITOR” (The Trustees of Indiana University, priority 2022, published 2024)

Experiments:
[1] = tested on: A549 NSCLC cells; experiment: long-term cell survival assay, A549; type: cell-based; conditions: sub-lethal crizotinib (2 μM) 2 h pre-treatment, then criz ± β-lap 2 h, ~7 days, DER >1 = synergistic
Description: FIG. 1B. […] LC50 values were calculated from long-term cell survival graphs using GraphPad PRISM; ND denotes Not Determined even at the highest concentration presented. All error bars represent the mean±SEM. **** p<0.0001, *** p<0.001, ** p<0.01, *p<0.05.
FIG. 1C. […] LC50 values were calculated from long-term cell survival graphs using GraphPad PRISM; ND denotes Not Determined even at the highest concentration presented. All error bars represent the mean±SEM. **** p<0.0001, *** p<0.001, ** p<0.01, *p<0.05.

[2] = tested on: A549 NQO1−/− cells; experiment: long-term cell survival, A549 NQO1 knock out; type: cell-based; conditions: β-lap alone
Description: (§1) LC50 values were calculated from long-term cell survival graphs using GraphPad PRISM; ND denotes Not Determined even at the highest concentration presented. All error bars represent the mean±SEM. **** p<0.0001, *** p<0.001, ** p<0.01, *p<0.05.
FIG. 1F. […] LC50 values were calculated from long-term cell survival graphs using GraphPad PRISM; ND denotes Not Determined even at the highest concentration presented. All error bars represent the mean±SEM. **** p<0.0001, *** p<0.001, ** p<0.01, *p<0.05.

[3] = tested on: A549 shMET cells; experiment: long-term survival, A549 shSCR vs shMET; type: cell-based; conditions: β-lap 2 h
Description: as §1

[4] = tested on: Capan2 shMET; experiment: long-term survival (DNA assay), Capan2 shSCR versus shMET; type: cell-based
Excerpt: FIG. 1-1R. Graph showing relative long-term survival in isogenic Capan2 shSCR versus shMET cell lines using the DNA assay.
Dicoumarol (DIC) is a well-established NQO1 inhibitor (Asher, et al., Biochemistry 2006, 45(20), 6372-8; Motea, et al., Clin Cancer Res 2019, 25(8), 2601-2609; Huang, et al., Cancer Cell 2016, 30(6), 940-952).

[5] = tested on: 53BP1 foci (DSBs) in A549 NSCLC; experiment: 53BP1 foci formation, A549; type: cell-based; conditions: A549, sub-lethal β-lap 3 μM for 2 h, monitored 24 h
Description: FIG. 3D. Graphical representation of average 53BP1 foci formation per nucleus at indicated treatment conditions: criz (1 μM), β-lap (3 μM), and DIC separately or in combination.
FIG. 3E Graph showing quantification of DSB formation (% cells with ≥5 53BP1 foci) following exposure of A549 shSCR vs shMET cells to indicated agents for 2 h (in red arrow), washed out and monitored up to 24 h to determine DSB repair kinetics.

[6] = tested on: Capan2-mCherry microtumor; experiment: 3D spheroid co-culture, tumor cells; type: cell-based; conditions: 3D co-culture with NIH3T3-GFP; crizotinib 2 μM, β-lap 2 μM or 4 μM
Description: FIG. 5D. Top Inset: Representative brightfield, green (NIH3T3-GFP), red (Capan2-mCherry), and merged images of 3D spheroid co-culture of Capan2-mCherry (cancer cells) and NIH3T3-GFP (normal cells). 3D co-cultures were exposed to specified treatment conditions and imaged at indicated times to monitor drug response. Scale bar=250 μm. Untreated NIH3T3-GFP 3D spheroid culture by itself (imaged at indicated times) was added for reference.
FIG. 5E. Bar graph of Capan2-mCherry 3D spheroid microtumor growth at specified treatment conditions over time. Asterisk (*) indicates synergistic response in the combination treatment compared to the corresponding individual treatments alone.
Next, we investigated the tumor-selectivity and efficacy of our combination treatment strategy using 3D co-culture spheroids of Capan2 PDAC (permanently labelled with mCherry) and NIH3T3 mouse embryonic fibroblast cells (permanently labelled with GFP) to mimic physiological cell-cell and cell-environment interactions during treatment. […] These are consistent with patient data comparing associated normal tissues versus tumors in pancreas (FIGS. 1-1B, 1-1G) and lungs (FIGS. 1A, 1-1B, 1-1H). Using confocal fluorescent microscopy, we noted that NIH3T3-GFP fibroblast cells were surrounding the Capan2-mCherry PDAC cells in the 3D spheroid co-culture (FIG. 5D).

[7] = tested on: pY1234-cMET/PARP1 nuclear interaction, A549; conditions: A549, β-lap 3 μM, 2 h
[8] = tested on: cancers with NQO1; conditions: average, most cancers with NQO1; cited from earlier work
[9] = β-lap monotherapy; cited from earlier work
[10] = HPBCD formulation; cited from earlier work
[11] = tested on: pY1234-cMET (activated cMET) in the nucleus, A549; experiment: Western blots of nuclear versus cytoplasmic fractions; conditions: A549, β-lap 3 μM and 6 μM for 2 h
Description: Images of Western blots of nuclear versus cytoplasmic fractions from A549 cells treated with vehicle (DMSO, 0.1%) control and indicated concentrations of β-lap±DIC (50 μM) for 2 h. Lamin B1 and tubulin were used as loading controls for nuclear and cytoplasmic fractions, respectively.
Bar graph depicting quantification of pY1234-cMET (activated cMET) in the nucleus at indicated treatment conditions.

In the case of `CC1(C)CCC2=C(O1)c1ccccc1C(=O)C2=O` [β-lap, β-Lapachone], the “DERLC50 (dose-enhancement ratio) of β-lap” value [1] is reported as 6.6, the “sensitivity after knocking out NQO1” value [2] is reported as “more resistant” and the “sensitivity to β-lap compared to shSCR control” value [3] is reported as “hypersensitivity”. The “sensitivity to β-lap after stable knockdown of cMET” value [4] was “enhanced Capan2 sensitivity”, the “DSB formation and repair” value [5] was “induced formation of DSBs that were easily repaired” and the Capan2-mCherry microtumor growth [6] was “very little effect on tumor growth”. The “in situ interaction between activated cMET and PARP1 (PLA foci)” value [7] was “enhanced in situ interaction”, the LD50 [8] was 3.0 to 6.0 µM and the “toxicity at high doses in clinical trials” value [9] was “methemoglobinemia and haemolysis”. For the same compound, the “maximum-tolerated dose (MTD)” value [10] was “about 25 mg/kg” and the “translocation of activated cMET (pY1234-cMET) into the nucleus” value [11] was “greatly enhanced”.
